Test results taken from patent publication US20040024024A1, “Aromatic sulfone hydroxamates and their use as protease inhibitors” (priority 2001, published 2004).

Columns and labels:
[1] = molecular target: T1, Human recombinant MMP-1 (Homo sapiens, UniProt P03956); assay: In vitro MMP inhibition, IC50 determination (fluorogenic substrate I); type: biochemical; conditions: value outside parentheses
T1 construct: made in house; host or cells: MMP-1-transfected HT-1080 cells (spent media)
T1 sequence (P03956 100-469): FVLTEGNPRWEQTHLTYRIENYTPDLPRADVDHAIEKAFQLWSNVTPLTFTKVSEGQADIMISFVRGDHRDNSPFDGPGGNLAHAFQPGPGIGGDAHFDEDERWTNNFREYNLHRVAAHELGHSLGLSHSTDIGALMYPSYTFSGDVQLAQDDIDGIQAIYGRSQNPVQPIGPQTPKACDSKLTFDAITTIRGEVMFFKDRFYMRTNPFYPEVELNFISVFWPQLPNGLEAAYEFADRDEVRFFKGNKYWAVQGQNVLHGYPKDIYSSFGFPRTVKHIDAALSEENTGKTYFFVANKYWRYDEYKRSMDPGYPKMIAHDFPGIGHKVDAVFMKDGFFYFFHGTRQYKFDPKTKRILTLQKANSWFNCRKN
In short: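 APMA- or trypsin-activated enzyme, purified from spent media of transfected HT-1080 cells, incubated at room temperature with 4 μM MCA-Pro-Leu-Gly-Leu-Dpa-Ala-Arg-NH2 and graded inhibitor in Tris buffer pH 7.5 (10 mM CaCl2, 0.05% Brij). Cleavage read by fluorescence (ex 328/em 415 nm); IC50 from fluorescence reduction versus inhibitor concentration.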

[2] = molecular target: T2, Human recombinant MMP-9 (Homo sapiens, UniProt P14780); assay: as above; type: biochemical; conditions: value outside parentheses
T2 construct: made in house; host or cells: MMP-9-transfected HT1080 cells (spent media)
T2 sequence (P14780 107-707 limits assumed): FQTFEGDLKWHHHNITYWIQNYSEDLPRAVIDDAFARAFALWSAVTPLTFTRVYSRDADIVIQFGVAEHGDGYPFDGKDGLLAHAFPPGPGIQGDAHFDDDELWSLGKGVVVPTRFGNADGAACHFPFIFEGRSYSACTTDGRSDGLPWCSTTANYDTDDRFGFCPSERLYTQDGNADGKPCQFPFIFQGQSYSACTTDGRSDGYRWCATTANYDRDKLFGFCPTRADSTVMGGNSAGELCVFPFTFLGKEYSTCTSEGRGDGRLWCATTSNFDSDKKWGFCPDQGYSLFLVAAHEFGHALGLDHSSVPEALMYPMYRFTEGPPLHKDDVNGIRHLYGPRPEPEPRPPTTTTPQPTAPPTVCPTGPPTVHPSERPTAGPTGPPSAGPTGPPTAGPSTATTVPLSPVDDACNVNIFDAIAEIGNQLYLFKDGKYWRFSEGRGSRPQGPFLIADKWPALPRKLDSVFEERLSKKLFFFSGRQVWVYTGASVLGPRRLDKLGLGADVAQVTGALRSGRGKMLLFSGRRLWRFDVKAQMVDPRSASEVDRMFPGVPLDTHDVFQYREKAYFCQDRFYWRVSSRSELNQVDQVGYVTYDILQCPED
In short: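 MMP-9 proenzyme purified from transfected HT1080 cell media, activated with APMA or trypsin. Compound dilutions in pH 7.5 Tris/NaCl/CaCl2 buffer with 0.05% polyoxyethylene 23 lauryl ether, incubated at room temperature with 4 μM MCA/Dpa substrate I. IC50 from fluorescence loss (ex 328, em 415 nm) versus inhibitor concentration.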

[3] = molecular target: T3, Human recombinant MMP-13 (Homo sapiens, UniProt P45452); assay: as above; type: biochemical; conditions: value outside parentheses
T3 construct: made in house; host or cells: baculovirus / insect cells
In short: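 Fluorescence at 415 nm (excitation 328 nm) reports Gly-Leu cleavage of 4 μM quenched methoxycoumarin peptide substrate I. Human recombinant MMP-13, activated by trypsin or APMA, was incubated at room temperature with varied inhibitor concentrations in pH 7.5 Tris/NaCl/CaCl2 buffer; IC50 derived from reduced fluorescence.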

[4] = molecular target: T4, Human recombinant MMP-14 (Homo sapiens, UniProt P50281); assay: as above; type: biochemical; conditions: value outside parentheses
T4 construct: The catalytic domain enzyme was expressed in E. coli inclusion bodies, solubilized in urea; made in house
In short: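 Catalytic-domain MMP-14, expressed in E. coli and refolded, activated with APMA or trypsin; compounds incubated at room temperature with 4 μM fluorogenic substrate I (MCA-PLGL-Dpa-AR-NH2) in Tris/NaCl/CaCl2 buffer, pH 7.5. Fluorescence at ex 328/em 415 nm; IC50 from loss of fluorescence versus inhibitor concentration.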

[5] = molecular target: T5, Human recombinant MMP-2 (Homo sapiens, UniProt P08253); assay: as above; type: biochemical; conditions: value outside parentheses
T5 construct: made in house; host or cells: MMP-2-transfected p2AHT2 cells
T5 sequence (P08253 110-660): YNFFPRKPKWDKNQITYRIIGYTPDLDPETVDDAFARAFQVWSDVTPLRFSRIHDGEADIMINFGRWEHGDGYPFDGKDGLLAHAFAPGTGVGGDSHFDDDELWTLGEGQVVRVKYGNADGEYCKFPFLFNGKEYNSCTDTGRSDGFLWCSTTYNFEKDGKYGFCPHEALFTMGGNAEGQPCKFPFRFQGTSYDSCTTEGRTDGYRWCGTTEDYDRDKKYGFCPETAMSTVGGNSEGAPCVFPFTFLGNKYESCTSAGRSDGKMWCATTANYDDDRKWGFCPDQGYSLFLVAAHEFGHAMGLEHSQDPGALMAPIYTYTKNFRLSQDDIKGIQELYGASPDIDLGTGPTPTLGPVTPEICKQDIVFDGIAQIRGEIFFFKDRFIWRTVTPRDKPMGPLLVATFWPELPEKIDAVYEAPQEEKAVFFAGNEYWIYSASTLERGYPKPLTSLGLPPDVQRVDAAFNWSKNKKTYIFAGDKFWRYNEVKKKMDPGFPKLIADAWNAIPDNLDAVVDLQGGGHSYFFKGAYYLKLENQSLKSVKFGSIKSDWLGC
In short: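 APMA- or trypsin-activated recombinant MMP-2 was incubated at room temperature with serial inhibitor dilutions in Tris buffer pH 7.5 (100 mM NaCl, 10 mM CaCl2, 0.05% Brij), with DMSO from 1% stocks, and 4 μM substrate I. Cleavage was read by fluorescence at 328/415 nm; IC50 was taken from the loss of fluorescence versus inhibitor concentration.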

[6] = system: solid tumor cancers (colorectal, pancreatic, ovarian, and prostate); conditions: cited from earlier work

IC50 [1] [µM] | IC50 [2] [nM] | IC50 [3] [nM] | IC50 [4] [nM] | IC50 [5] [nM] | Compound | most common drug-related toxicity ([6]; clinical trials, patients) | effect on cancer-specific antigens used as surrogate markers for biological activity ([6]; patients with advanced, rapidly progressive, treatment-refractory solid tumor cancers)
> 10 | 891 | 3.27 | > 10000 | 156 | CC(=O)c1cccc(OCCOc2ccc(S(=O)(=O)C3(C(=O)NO)CCOCC3)cc2)c1 [Example 658] |  | 
7.35 | 83.1 | 1.41 | 3490 | 18.7 | O=C(NO)C1(S(=O)(=O)c2ccc(OCCOCc3cccc(OC(F)(F)F)c3)cc2)CCOCC1 [Example 660] |  | 
> 10 | 616 | 61 | > 10000 | 78.2 | O=C(NO)C1(S(=O)(=O)c2ccc(OCCOCC3CCCCO3)cc2)CCOCC1 (centres unmarked) [Example 661] |  | 
2.31 | 44.3 | 0.9 | 1670 | 7.13 | O=C(NO)C1(S(=O)(=O)c2ccc(OCCOCc3cccc([N+](=O)[O-])c3)cc2)CCOCC1 [Example 662] |  | 
> 10 | 49.9 | 3.61 | 3320 | 25.2 | O=C(NO)C1(S(=O)(=O)c2ccc(OCCOCc3cccc(F)c3)cc2)CCOCC1 [Example 663] |  | 
> 10 | 430 | 1.02 | 2650 | 19.8 | O=C(NO)C1(S(=O)(=O)c2ccc(OCC3Cc4cc(Oc5ccccc5)ccc4O3)cc2)CCOCC1 (centres unmarked) [Example 664] |  | 
> 10 | 44.3 | 2.39 | 2130 | 11.6 | O=C(NO)C1(S(=O)(=O)c2ccc(OCCOc3ccc4c(c3)OCO4)cc2)CCOCC1 [Example 665] |  | 
> 10 | 4450 | 17.2 | > 10000 | 1.52 | CN(C)C(=O)c1cccc(OCCOc2ccc(S(=O)(=O)C3(C(=O)NO)CCOCC3)cc2)c1 [Example 666] |  | 
> 10 | 34.2 | 9.42 | 2510 | 27.3 | O=C(NO)C1(S(=O)(=O)c2ccc(OCCOc3ccccc3)cc2)CCOCC1 [Example 667] |  | 
7.66 | 288 | 1.53 | 2110 | 101 | COC(=O)c1cccc(OCCOc2ccc(S(=O)(=O)C3(C(=O)NO)CCOCC3)cc2)c1 [Example 668] |  | 
> 10 | 39.1 | 7.24 | 2670 | 19.3 | O=C(NO)C1(S(=O)(=O)c2ccc(OCCOc3cccc(F)c3)cc2)CCOCC1 [Example 669] |  | 
> 10 | 183 | 14 | 2370 | 163 | CC(=O)Nc1cccc(OCCOc2ccc(S(=O)(=O)C3(C(=O)NO)CCOCC3)cc2)c1 [Example 670] |  | 

Second part, the compound before the results:

Compound | IC50 [1] [µM] | IC50 [2] [nM] | IC50 [3] [nM] | IC50 [4] [nM] | IC50 [5] [nM] | most common drug-related toxicity ([6]; clinical trials, patients) | effect on cancer-specific antigens used as surrogate markers for biological activity ([6]; patients with advanced, rapidly progressive, treatment-refractory solid tumor cancers)
O=C(NO)C1(S(=O)(=O)c2ccc(OCCCS(=O)(=O)NC34CC5CC(CC(C5)C3)C4)cc2)CCOCC1 [Example 645] | 9.28 | 1730 | 4.3 | > 10000 | 22.9 |  | 
NCc1ccc(OCCOc2ccc(S(=O)(=O)C3(C(=O)NO)CCOCC3)cc2)cc1 [Example 650] | 2.88 | 2.46 | 2.45 | 2390 | 1.1 |  | 
COC(=O)c1ccc(OCCOc2ccc(S(=O)(=O)C3(C(=O)NO)CCOCC3)cc2)cc1 [Example 651] | > 10 | 129 | 1.13 | 651 | 18.7 |  | 
O=C(CCCOc1ccc(S(=O)(=O)C2(C(=O)NO)CCOCC2)cc1)N1CC[C@@H](c2ccccc2)[C@@H](O)C1 [Example 652] | 3.67 | 224 | 0.95 | > 10000 | 76.6 |  | 
O=C(NO)C1(S(=O)(=O)c2ccc(OCCOCc3ccccc3)cc2)CCOCC1 [Example 653] | 3.92 | 49.1 | 5.58 | 2510 | 24.9 |  | 
CN(C(=O)CCCOc1ccc(S(=O)(=O)C2(C(=O)NO)CCOCC2)cc1)c1ccccc1 [Example 654] | > 10 | 970 | 0.55 | > 10000 | 160 |  | 
O=C(NO)C1(S(=O)(=O)c2ccc(OCCOCC3CC3)cc2)CCOCC1 [Example 655] | > 10 | 69.9 | 28.4 | > 10000 | 24.1 |  | 
O=C(NO)C1(S(=O)(=O)c2ccc(OCCCn3nnc(-c4ccc(OC(F)(F)F)cc4)n3)cc2)CCOCC1 [Example 656] | > 10 | 1180 | 0.66 | > 10000 | 408 |  | 
O=C(NO)C1(S(=O)(=O)c2ccc(OCCCn3nnc(-c4ccc(C(F)(F)F)cc4)n3)cc2)CCN(CC(F)(F)F)CC1 [Example 657] | > 10 | 380 | 6030 | 3460 | 316 |  | 
CNC(=O)[C@@H](NC(=O)[C@H](CC(C)C)[C@H](O)C(=O)NO)C(C)(C)C [Marimastat] |  |  |  |  |  | musculoskeletal pain and stiffness | dose-related reduction in the rise of cancer-specific antigens
